Laboratory results reported in ChEMBL document CHEMBL1154382, “Preliminary SAR analysis of novel antiproliferative N(6),5'-bis-ureidoadenosine derivatives” (2009).

Experiments:
Format in all cases: functional
Conditions in all cases: values are per cent of control
CCRF-CEM = assay: Antiproliferative activity against human CCRF-CEM cells at 10 uM assessed as cell growth inhibition relative to control
HL-60(TB) = assay: Antiproliferative activity against human HL-60(TB) cells at 10 uM assessed as cell growth inhibition relative to control
K562 = assay: Antiproliferative activity against human K562 cells at 10 uM assessed as cell growth inhibition relative to control
MOLT-4 = assay: Antiproliferative activity against human MOLT4 cells at 10 uM assessed as cell growth inhibition relative to control
[1] = Antiproliferative activity against human […] cells at 10 uM assessed as cell growth inhibition relative to control
A549 = assay: Antiproliferative activity against human A549 cells at 10 uM assessed as cell growth inhibition relative to control
EKVX = assay: Antiproliferative activity against human EKVX cells at 10 uM assessed as cell growth inhibition relative to control
PC-3 = assay: Antiproliferative activity against human PC3 cells at 10 uM assessed as cell growth inhibition relative to control
HOP-62 = assay: Antiproliferative activity against human HOP62 cells at 10 uM assessed as cell growth inhibition relative to control
HOP-92 = assay: Antiproliferative activity against human HOP92 cells at 10 uM assessed as cell growth inhibition relative to control
NCI-H226 = assay: Antiproliferative activity against human NCI-H226 cells at 10 uM assessed as cell growth inhibition relative to control
NCI-H23 = assay: Antiproliferative activity against human NCI-H23 cells at 10 uM assessed as cell growth inhibition relative to control
NCI-H322M = assay: Antiproliferative activity against human NCI-H322M cells at 10 uM assessed as cell growth inhibition relative to control
NCI-H460 = assay: Antiproliferative activity against human NCI-H460 cells at 10 uM assessed as cell growth inhibition relative to control
NCI-H522 = assay: Antiproliferative activity against human NCI-H522 cells at 10 uM assessed as cell growth inhibition relative to control
COLO 205 = assay: Antiproliferative activity against human COLO205 cells at 10 uM assessed as cell growth inhibition relative to control
HCC 2998 = assay: Antiproliferative activity against human HCC2998 cells at 10 uM assessed as cell growth inhibition relative to control
HCT-116 = assay: Antiproliferative activity against human HCT116 cells at 10 uM assessed as cell growth inhibition relative to control
HCT-15 = assay: Antiproliferative activity against human HCT15 cells at 10 uM assessed as cell growth inhibition relative to control
HT-29 = assay: Antiproliferative activity against human HT-29 cells at 10 uM assessed as cell growth inhibition relative to control
KM12 = assay: Antiproliferative activity against human KM12 cells at 10 uM assessed as cell growth inhibition relative to control
SW-620 = assay: Antiproliferative activity against human SW620 cells at 10 uM assessed as cell growth inhibition relative to control
LOX IMVI = assay: Antiproliferative activity against human LOXIMVI cells at 10 uM assessed as cell growth inhibition relative to control
Malme-3M = assay: Antiproliferative activity against human MALME-3M cells at 10 uM assessed as cell growth inhibition relative to control
M14 = assay: Antiproliferative activity against human M14 cells at 10 uM assessed as cell growth inhibition relative to control
SK-MEL-2 = assay: Antiproliferative activity against human SK-MEL-2 cells at 10 uM assessed as cell growth inhibition relative to control
SK-MEL-28 = assay: Antiproliferative activity against human SK-MEL-28 cells at 10 uM assessed as cell growth inhibition relative to control
SK-MEL-5 = assay: Antiproliferative activity against human SK-MEL-5 cells at 10 uM assessed as cell growth inhibition relative to control
UACC-257 = assay: Antiproliferative activity against human UACC257 cells at 10 uM assessed as cell growth inhibition relative to control
UACC-62 = assay: Antiproliferative activity against human UACC62 cells at 10 uM assessed as cell growth inhibition relative to control
SF-268 = assay: Antiproliferative activity against human SF268 cells at 10 uM assessed as cell growth inhibition relative to control
SF-295 = assay: Antiproliferative activity against human SF295 cells at 10 uM assessed as cell growth inhibition relative to control
SF-539 = assay: Antiproliferative activity against human SF539 cells at 10 uM assessed as cell growth inhibition relative to control
SNB-19 = assay: Antiproliferative activity against human SNB19 cells at 10 uM assessed as cell growth inhibition relative to control
SNB-75 = assay: Antiproliferative activity against human SNB75 cells at 10 uM assessed as cell growth inhibition relative to control
U-251 = assay: Antiproliferative activity against human U251 cells at 10 uM assessed as cell growth inhibition relative to control
IGROV-1 = assay: Antiproliferative activity against human IGROV1 cells at 10 uM assessed as cell growth inhibition relative to control
OVCAR-3 = assay: Antiproliferative activity against human OVCAR-3 cells at 10 uM assessed as cell growth inhibition relative to control
OVCAR-4 = assay: Antiproliferative activity against human OVCAR4 cells at 10 uM assessed as cell growth inhibition relative to control
OVCAR-5 = assay: Antiproliferative activity against human OVCAR5 cells at 10 uM assessed as cell growth inhibition relative to control
OVCAR-8 = assay: Antiproliferative activity against human OVCAR8 cells at 10 uM assessed as cell growth inhibition relative to control
SK-OV-3 = assay: Antiproliferative activity against human SKOV3 cells at 10 uM assessed as cell growth inhibition relative to control
786-0 = assay: Antiproliferative activity against human 786-0 cells at 10 uM assessed as cell growth inhibition relative to control
A498 = assay: Antiproliferative activity against human A498 cells at 10 uM assessed as cell growth inhibition relative to control
ACHN = assay: Antiproliferative activity against human ACHN cells at 10 uM assessed as cell growth inhibition relative to control
CAKI-1 = assay: Antiproliferative activity against human Caki1 cells at 10 uM assessed as cell growth inhibition relative to control
RXF 393 = assay: Antiproliferative activity against human RXF393 cells at 10 uM assessed as cell growth inhibition relative to control
SN12C = assay: Antiproliferative activity against human SN12C cells at 10 uM assessed as cell growth inhibition relative to control
TK-10 = assay: Antiproliferative activity against human TK10 cells at 10 uM assessed as cell growth inhibition relative to control
UO-31 = assay: Antiproliferative activity against human UO31 cells at 10 uM assessed as cell growth inhibition relative to control
BT-549 = assay: Antiproliferative activity against human BT549 cells at 10 uM assessed as cell growth inhibition relative to control
[2] = Antiproliferative activity against human Hs 578T cells at 10 uM assessed as cell growth inhibition relative to control
MCF7 = assay: Antiproliferative activity against human MCF7 cells at 10 uM assessed as cell growth inhibition relative to control
MDA-MB-231 = assay: Antiproliferative activity against human MDA-MB-231 cells at 10 uM assessed as cell growth inhibition relative to control
MDA-MB-468 = assay: Antiproliferative activity against human MDA-MB-468 cells at 10 uM assessed as cell growth inhibition relative to control
T47D = assay: Antiproliferative activity against human T47D cells at 10 uM assessed as cell growth inhibition relative to control
DU-145 = assay: Antiproliferative activity against human DU145 cells at 10 uM assessed as cell growth inhibition relative to control

## CCOC(=O)C[C@H]1[C@@H](O[Si](C)(C)C(C)(C)C)[C@H](n2cnc3c(NC(=O)Nc4ccccc4)ncnc32)O[C@@H]1CN=[N+]=[N-]
CCRF-CEM
  growth, % of control at 10 µM: 63%
HL-60(TB)
  growth, % of control at 10 µM: 51%
K562
  growth, % of control at 10 µM: 72%
MOLT-4
  growth, % of control at 10 µM: 79%
[1]
  growth, % of control at 10 µM: 75%
A549
  growth, % of control at 10 µM: 103%
EKVX
  growth, % of control at 10 µM: 89%
PC-3
  growth, % of control at 10 µM: 64%
HOP-62
  growth, % of control at 10 µM: 98%
HOP-92
  growth, % of control at 10 µM: 100%
NCI-H226
  growth, % of control at 10 µM: 62%
NCI-H23
  growth, % of control at 10 µM: 97%
NCI-H322M
  growth, % of control at 10 µM: 99%
NCI-H460
  growth, % of control at 10 µM: 104%
NCI-H522
  growth, % of control at 10 µM: 90%
COLO 205
  growth, % of control at 10 µM: 114%
HCC 2998
  growth, % of control at 10 µM: 121%
HCT-116
  growth, % of control at 10 µM: 82%
HCT-15
  growth, % of control at 10 µM: 84%
HT-29
  growth, % of control at 10 µM: 104%
KM12
  growth, % of control at 10 µM: 101%
SW-620
  growth, % of control at 10 µM: 101%
LOX IMVI
  growth, % of control at 10 µM: 96%
Malme-3M
  growth, % of control at 10 µM: 97%
M14
  growth, % of control at 10 µM: 101%
SK-MEL-2
  growth, % of control at 10 µM: 91%
SK-MEL-28
  growth, % of control at 10 µM: 116%
SK-MEL-5
  growth, % of control at 10 µM: 104%
UACC-257
  growth, % of control at 10 µM: 88%
UACC-62
  growth, % of control at 10 µM: 83%
SF-268
  growth, % of control at 10 µM: 95%
SF-295
  growth, % of control at 10 µM: 94%
SF-539
  growth, % of control at 10 µM: 89%
SNB-19
  growth, % of control at 10 µM: 92%
SNB-75
  growth, % of control at 10 µM: 73%
U-251
  growth, % of control at 10 µM: 95%
IGROV-1
  growth, % of control at 10 µM: 93%
OVCAR-3
  growth, % of control at 10 µM: 111%
OVCAR-4
  growth, % of control at 10 µM: 66%
OVCAR-5
  growth, % of control at 10 µM: 107%
OVCAR-8
  growth, % of control at 10 µM: 98%
SK-OV-3
  growth, % of control at 10 µM: 101%
786-0
  growth, % of control at 10 µM: 89%
A498
  growth, % of control at 10 µM: 121%
ACHN
  growth, % of control at 10 µM: 92%
CAKI-1
  growth, % of control at 10 µM: 87%
RXF 393
  growth, % of control at 10 µM: 111%
SN12C
  growth, % of control at 10 µM: 81%
TK-10
  growth, % of control at 10 µM: 103%
UO-31
  growth, % of control at 10 µM: 83%
BT-549
  growth, % of control at 10 µM: 100%
[2]
  growth, % of control at 10 µM: 92%
MCF7
  growth, % of control at 10 µM: 85%
MDA-MB-231
  growth, % of control at 10 µM: 95%
MDA-MB-468
  growth, % of control at 10 µM: 95%
T47D
  growth, % of control at 10 µM: 73%
DU-145
  growth, % of control at 10 µM: 105%
